# Results published in PubChem BioAssay AID1963444 (Molecular Pharmacology Branch, DTP, NCI, 2024).
# System: HSSY-II complex spheroid growth, percent test/control
# Assay: Anticancer human tumor HSSY-II cell line growth inhibition [Asc];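 note: spheroids exposed to drug for 7 days before reading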
# Conditions: for IC50: curve of first compound; for viability, T/C: stronger effect = lower value
# How it was run: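 Tumor cells were grown as multicellular spheroids with stromal HUVEC and mesenchymal stem cells and treated singly or in combination. Concentrations fell in half-log steps from the clinical Cmax, or from 10 microM where none was known.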
smiles,measurement,setting,value
Cc1nc(N2CCC3(CC2)COC(C)C3N)c(CO)nc1Sc1ccnc(N)c1Cl (centres undefined) + CCN1C(C(=O)NC23CCC(C(=O)O)(CC2)CC3)C(c2cccc(Cl)c2F)C2(C(=O)Nc3cc(Cl)ccc32)C12CCCCC2,IC50,second compound 0.03 µM,> 3 µM
same,IC50,second compound 0.0949 µM,0.612 µM
same,IC50,second compound 0.3 µM,< 0.00949 µM
same,IC50,second compound 0.949 µM,< 0.00949 µM
same,IC50,second compound 3 µM,< 0.00949 µM
same,"viability, T/C","second compound 0.03 µM, first compound 0.00949 µM",105%
same,"viability, T/C","second compound 0.03 µM, first compound 0.03 µM",97.6%
same,"viability, T/C","second compound 0.03 µM, first compound 0.0949 µM",100%
same,"viability, T/C","second compound 0.03 µM, first compound 0.3 µM",93.2%
same,"viability, T/C","second compound 0.03 µM, first compound 0.949 µM",88.8%
same,"viability, T/C","second compound 0.03 µM, first compound 3 µM",59.8%
same,"viability, T/C","second compound 0.0949 µM, first compound 0.00949 µM",64%
same,"viability, T/C","second compound 0.0949 µM, first compound 0.03 µM",59.3%
same,"viability, T/C","second compound 0.0949 µM, first compound 0.0949 µM",57.6%
same,"viability, T/C","second compound 0.0949 µM, first compound 0.3 µM",58.7%
same,"viability, T/C","second compound 0.0949 µM, first compound 0.949 µM",44.3%
same,"viability, T/C","second compound 0.0949 µM, first compound 3 µM",36.6%
same,"viability, T/C","second compound 0.3 µM, first compound 0.00949 µM",23.8%
same,"viability, T/C","second compound 0.3 µM, first compound 0.03 µM",22.2%
same,"viability, T/C","second compound 0.3 µM, first compound 0.0949 µM",23.4%
same,"viability, T/C","second compound 0.3 µM, first compound 0.3 µM",23.2%
same,"viability, T/C","second compound 0.3 µM, first compound 0.949 µM",14.6%
same,"viability, T/C","second compound 0.3 µM, first compound 3 µM",18.5%
same,"viability, T/C","second compound 0.949 µM, first compound 0.00949 µM",7.31%
same,"viability, T/C","second compound 0.949 µM, first compound 0.03 µM",6.01%
same,"viability, T/C","second compound 0.949 µM, first compound 0.0949 µM",4.66%
same,"viability, T/C","second compound 0.949 µM, first compound 0.3 µM",3.37%
same,"viability, T/C","second compound 0.949 µM, first compound 0.949 µM",2.01%
same,"viability, T/C","second compound 0.949 µM, first compound 3 µM",2.02%
same,"viability, T/C","second compound 3 µM, first compound 0.00949 µM",1.65%
same,"viability, T/C","second compound 3 µM, first compound 0.03 µM",1.25%
same,"viability, T/C","second compound 3 µM, first compound 0.0949 µM",0.81%
same,"viability, T/C","second compound 3 µM, first compound 0.3 µM",0.41%
same,"viability, T/C","second compound 3 µM, first compound 0.949 µM",0.35%
same,"viability, T/C","second compound 3 µM, first compound 3 µM",0.42%
C#Cc1c(F)ccc2cc(O)cc(-c3ncc4c(N5CC6CCC(C5)N6)nc(OCC56CCCN5CC(F)C6)nc4c3F)c12 (centres undefined) + CNC(C)C(=O)NC1CN(S(=O)(=O)c2cccc(S(=O)(=O)N3CCC4CCC(C(=O)NC(c5ccccc5)c5ccccc5)N4C(=O)C(NC(=O)C(C)NC)C3)c2)CCC2CCC(C(=O)NC(c3ccccc3)c3ccccc3)N2C1=O,IC50,second compound 0.00316 µM,> 10 µM
same,IC50,second compound 0.01 µM,6.97 µM
same,IC50,second compound 0.0316 µM,8.98 µM
same,IC50,second compound 0.1 µM,> 10 µM
same,IC50,second compound 0.316 µM,9.6 µM
same,IC50,second compound 1 µM,7.49 µM
same,"viability, T/C","second compound 0.00316 µM, first compound 0.0316 µM",97.9%
same,"viability, T/C","second compound 0.00316 µM, first compound 0.1 µM",92.2%
same,"viability, T/C","second compound 0.00316 µM, first compound 0.316 µM",92.2%
same,"viability, T/C","second compound 0.00316 µM, first compound 1 µM",109%
same,"viability, T/C","second compound 0.00316 µM, first compound 3.16 µM",96.7%
same,"viability, T/C","second compound 0.00316 µM, first compound 10 µM",62.2%
same,"viability, T/C","second compound 0.01 µM, first compound 0.0316 µM",100%
same,"viability, T/C","second compound 0.01 µM, first compound 0.1 µM",88%
same,"viability, T/C","second compound 0.01 µM, first compound 0.316 µM",94%
same,"viability, T/C","second compound 0.01 µM, first compound 1 µM",98.1%
same,"viability, T/C","second compound 0.01 µM, first compound 3.16 µM",88.8%
same,"viability, T/C","second compound 0.01 µM, first compound 10 µM",32%
same,"viability, T/C","second compound 0.0316 µM, first compound 0.0316 µM",100%
same,"viability, T/C","second compound 0.0316 µM, first compound 0.1 µM",96.3%
same,"viability, T/C","second compound 0.0316 µM, first compound 0.316 µM",95.2%
same,"viability, T/C","second compound 0.0316 µM, first compound 1 µM",94.3%
same,"viability, T/C","second compound 0.0316 µM, first compound 3.16 µM",94.2%
same,"viability, T/C","second compound 0.0316 µM, first compound 10 µM",45.4%
same,"viability, T/C","second compound 0.1 µM, first compound 0.0316 µM",100%
same,"viability, T/C","second compound 0.1 µM, first compound 0.1 µM",91.7%
same,"viability, T/C","second compound 0.1 µM, first compound 0.316 µM",93.6%
same,"viability, T/C","second compound 0.1 µM, first compound 1 µM",88.5%
same,"viability, T/C","second compound 0.1 µM, first compound 3.16 µM",85.1%
same,"viability, T/C","second compound 0.1 µM, first compound 10 µM",63%
same,"viability, T/C","second compound 0.316 µM, first compound 0.0316 µM",102%
same,"viability, T/C","second compound 0.316 µM, first compound 0.1 µM",93.9%
same,"viability, T/C","second compound 0.316 µM, first compound 0.316 µM",88.5%
same,"viability, T/C","second compound 0.316 µM, first compound 1 µM",91.2%
same,"viability, T/C","second compound 0.316 µM, first compound 3.16 µM",84.9%
same,"viability, T/C","second compound 0.316 µM, first compound 10 µM",48.1%
same,"viability, T/C","second compound 1 µM, first compound 0.0316 µM",91.9%
same,"viability, T/C","second compound 1 µM, first compound 0.1 µM",90.8%
same,"viability, T/C","second compound 1 µM, first compound 0.316 µM",96.2%
same,"viability, T/C","second compound 1 µM, first compound 1 µM",86.1%
same,"viability, T/C","second compound 1 µM, first compound 3.16 µM",86.6%
same,"viability, T/C","second compound 1 µM, first compound 10 µM",37.5%
Cc1nc(N2CCC3(CC2)COC(C)C3N)c(CO)nc1Sc1ccnc(N)c1Cl (centres undefined) + CNC(C)C(=O)NC1CN(S(=O)(=O)c2cccc(S(=O)(=O)N3CCC4CCC(C(=O)NC(c5ccccc5)c5ccccc5)N4C(=O)C(NC(=O)C(C)NC)C3)c2)CCC2CCC(C(=O)NC(c3ccccc3)c3ccccc3)N2C1=O,IC50,second compound 0.00316 µM,> 3 µM
same,IC50,second compound 0.01 µM,> 3 µM
same,IC50,second compound 0.0316 µM,> 3 µM
same,IC50,second compound 0.1 µM,> 3 µM
same,IC50,second compound 0.316 µM,> 3 µM
same,IC50,second compound 1 µM,> 3 µM
same,"viability, T/C","second compound 0.00316 µM, first compound 0.00949 µM",104%
same,"viability, T/C","second compound 0.00316 µM, first compound 0.03 µM",102%
same,"viability, T/C","second compound 0.00316 µM, first compound 0.0949 µM",90.9%
same,"viability, T/C","second compound 0.00316 µM, first compound 0.3 µM",92.6%
same,"viability, T/C","second compound 0.00316 µM, first compound 0.949 µM",90.7%
same,"viability, T/C","second compound 0.00316 µM, first compound 3 µM",69.1%
same,"viability, T/C","second compound 0.01 µM, first compound 0.00949 µM",105%
same,"viability, T/C","second compound 0.01 µM, first compound 0.03 µM",97.2%
same,"viability, T/C","second compound 0.01 µM, first compound 0.0949 µM",90.8%
same,"viability, T/C","second compound 0.01 µM, first compound 0.3 µM",93.7%
same,"viability, T/C","second compound 0.01 µM, first compound 0.949 µM",88.1%
same,"viability, T/C","second compound 0.01 µM, first compound 3 µM",66.9%
same,"viability, T/C","second compound 0.0316 µM, first compound 0.00949 µM",101%
same,"viability, T/C","second compound 0.0316 µM, first compound 0.03 µM",91.2%
same,"viability, T/C","second compound 0.0316 µM, first compound 0.0949 µM",95.4%
same,"viability, T/C","second compound 0.0316 µM, first compound 0.3 µM",85.8%
same,"viability, T/C","second compound 0.0316 µM, first compound 0.949 µM",90.7%
same,"viability, T/C","second compound 0.0316 µM, first compound 3 µM",74.9%
same,"viability, T/C","second compound 0.1 µM, first compound 0.00949 µM",96.9%
same,"viability, T/C","second compound 0.1 µM, first compound 0.03 µM",96.4%
same,"viability, T/C","second compound 0.1 µM, first compound 0.0949 µM",97.5%
same,"viability, T/C","second compound 0.1 µM, first compound 0.3 µM",95.6%
same,"viability, T/C","second compound 0.1 µM, first compound 0.949 µM",84.3%
same,"viability, T/C","second compound 0.1 µM, first compound 3 µM",70.8%
same,"viability, T/C","second compound 0.316 µM, first compound 0.00949 µM",93.5%
same,"viability, T/C","second compound 0.316 µM, first compound 0.03 µM",94.2%
same,"viability, T/C","second compound 0.316 µM, first compound 0.0949 µM",90.2%
same,"viability, T/C","second compound 0.316 µM, first compound 0.3 µM",85.4%
same,"viability, T/C","second compound 0.316 µM, first compound 0.949 µM",78.7%
same,"viability, T/C","second compound 0.316 µM, first compound 3 µM",72.5%
same,"viability, T/C","second compound 1 µM, first compound 0.00949 µM",97.5%
same,"viability, T/C","second compound 1 µM, first compound 0.03 µM",92.8%
same,"viability, T/C","second compound 1 µM, first compound 0.0949 µM",92.7%
same,"viability, T/C","second compound 1 µM, first compound 0.3 µM",84.7%
same,"viability, T/C","second compound 1 µM, first compound 0.949 µM",87.6%
same,"viability, T/C","second compound 1 µM, first compound 3 µM",76%
